Results on four compounds are retold here after ChEMBL document CHEMBL1142557, “Novel bioactive sulfated alkene and alkanes from the mediterranean ascidian Halocynthia papillosa” (J Nat Prod, 2000).

Converted amounts (≈) assume the structure as drawn. The source made the active and inactive calls. No cut-off for these calls is given here.

Experiment [1] concerns WEHI-164. Kind of experiment: Cytotoxicity against mouse WEHI164 cells assessed as cell viability after 96 hrs by MTT assay. Type of experiment: functional, cell-based. Particulars: WEHI-164, 96 h.
In experiment [2] the test system is C6. Kind of experiment: Cytotoxicity against rat C6 cells assessed as cell viability after 96 hrs by MTT assay. Particulars: for IC50: C6, 96 h. Type of experiment: functional, cell-based. On the technique in general: Tetrazolium assays rely on reduction of a dye to a coloured formazan, in cell work by metabolically active cells.

As a reminder, the IC50 is the concentration that gives 50% inhibition. With `CC(C)CCC[C@@H](C)COS(=O)(=O)O`, the IC50 in experiment [1] is 20.9 µg/mL (≈ 93.2 µM). In experiment [2], the outcome was inactive.

On to `CC(C)CCCCCOS(=O)(=O)O`, for which the IC50 in experiment [1] turned out to be 15 µg/mL (≈ 71.3 µM); in experiment [2] it was 545 µg/mL (≈ 2590 µM).

For the compound `CCC=CCCCCOS(=O)(=O)O`, the IC50 in experiment [1] worked out at 12.2 µg/mL (≈ 58.6 µM); in experiment [2], 515 µg/mL (≈ 2470 µM).

Turning to `Sc1ncnc2nc[nH]c12` [MERCAPTOPURINE ANHYDROUS], the IC50 in experiment [1] came to 1.3 µg/mL (≈ 8.54 µM); in experiment [2], 30.2 µg/mL (≈ 198 µM).
